This is an account of results in patent US9567302B2, “Carbamate compounds and of making and using same” (Abide Therapeutics, Inc., priority 2012, dated 2017).

Format in all cases: biochemical
The target of experiment [1] is T1, FAAH (Mus musculus, UniProt O08914).
T1 sequence (O08914 1-579): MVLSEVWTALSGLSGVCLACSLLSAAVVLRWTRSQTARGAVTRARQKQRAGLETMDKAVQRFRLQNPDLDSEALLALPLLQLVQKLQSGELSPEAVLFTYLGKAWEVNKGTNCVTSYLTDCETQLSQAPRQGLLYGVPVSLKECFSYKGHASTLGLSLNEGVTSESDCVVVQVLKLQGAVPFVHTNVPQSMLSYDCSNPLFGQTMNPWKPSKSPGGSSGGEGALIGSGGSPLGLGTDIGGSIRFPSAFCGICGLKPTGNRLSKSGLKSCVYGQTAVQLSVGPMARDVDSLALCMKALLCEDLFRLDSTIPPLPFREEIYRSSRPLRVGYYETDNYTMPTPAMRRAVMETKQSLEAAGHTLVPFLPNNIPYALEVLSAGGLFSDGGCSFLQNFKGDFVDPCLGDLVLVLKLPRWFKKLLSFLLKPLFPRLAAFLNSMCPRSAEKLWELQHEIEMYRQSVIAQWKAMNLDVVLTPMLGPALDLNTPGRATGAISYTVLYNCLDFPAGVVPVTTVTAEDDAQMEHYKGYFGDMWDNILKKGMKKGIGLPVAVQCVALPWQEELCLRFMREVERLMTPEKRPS
Put plainly: In vitro competitive ABPP, % inhibition at fixed concentration, FAAH. More on the design: from tissue. On the procedure: (§1) In Vitro Competitive Activity-Based Protein Profiling.
(§2) Proteomes (mouse brain membrane fraction or cell lysates) (50 μL, 1.0 mg/ml total protein concentration) were preincubated with varying concentrations of inhibitors at 37° C. After 30 min, FP-Rh (1.0 μL, 50 μM in DMSO) was added and the mixture was incubated for another 30 min at 37° C. Reactions were quenched with SDS loading buffer (50 μL—4×) and run on SDS-PAGE. Following gel imaging, serine hydrolase activity was determined by measuring fluorescent intensity of gel bands corresponding to MAGL, ABHD6 and FAAH using ImageJ 1.43u software.

Experiment [2] concerns the target T2, ABHD6 (Mus musculus, UniProt Q8R2Y0).
T2 sequence (Q8R2Y0 1-336): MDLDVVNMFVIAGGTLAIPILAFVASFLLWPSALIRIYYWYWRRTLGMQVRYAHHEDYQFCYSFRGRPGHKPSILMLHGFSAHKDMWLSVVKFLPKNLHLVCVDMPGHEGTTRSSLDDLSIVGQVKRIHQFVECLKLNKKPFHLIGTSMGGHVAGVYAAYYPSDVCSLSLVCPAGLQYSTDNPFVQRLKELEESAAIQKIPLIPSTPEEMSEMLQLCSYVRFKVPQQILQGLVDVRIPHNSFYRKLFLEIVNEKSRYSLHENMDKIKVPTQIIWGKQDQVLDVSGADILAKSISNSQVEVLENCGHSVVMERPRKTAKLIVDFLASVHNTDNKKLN
The experiment can be described thus: In vitro competitive ABPP, % inhibition at fixed concentration, ABHD6. Set-up: from tissue. The method, then: as §1, §2

Experiment [3] addresses T3, MAGL (Mus musculus, UniProt O35678).
T3 sequence (O35678 1-303): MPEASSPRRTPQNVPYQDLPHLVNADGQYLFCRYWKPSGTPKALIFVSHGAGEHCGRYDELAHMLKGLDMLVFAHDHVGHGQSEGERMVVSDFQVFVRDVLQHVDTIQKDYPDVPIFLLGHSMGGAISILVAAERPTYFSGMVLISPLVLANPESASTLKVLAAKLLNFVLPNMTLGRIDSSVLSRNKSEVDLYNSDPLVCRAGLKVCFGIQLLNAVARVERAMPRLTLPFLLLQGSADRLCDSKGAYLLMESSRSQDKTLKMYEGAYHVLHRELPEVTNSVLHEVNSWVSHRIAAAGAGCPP
The experiment can be described thus: In vitro competitive ABPP, % inhibition at fixed concentration, MAGL. More on the design: from tissue. On the procedure: as §1, §2

Experiment [4] addresses T1, FAAH. Put plainly: In vitro competitive activity-based protein profiling (FP-Rh), mouse FAAH. Particulars: Table 2, mouse proteome, 30 min preincubation at 37° C. More on the design: from tissue; host or cells: mouse brain membrane fraction. On the procedure: as §1
(§3) Proteomes (mouse brain membrane fraction or cell lysates) (50 μL, 1.0 mg/ml total protein concentration) were preincubated with varying concentrations of inhibitors at 37° C. After 30 min, FP-Rh (1.0 μL, 50 μM in DMSO) was added and the mixture was incubated for another 30 min at 37° C. Reactions were quenched with SDS loading buffer (50 μL—4×) and run on SDS-PAGE.

Experiment [5] has as its target T2, ABHD6. Put plainly: In vitro competitive activity-based protein profiling (FP-Rh), mouse ABHD6. More on the design: from tissue; host or cells: mouse brain membrane fraction. The following applies: Table 2, mouse proteome, 30 min preincubation at 37° C. On the procedure:
as §1, §3

Experiment [6] has as its target T3, MAGL. The experiment can be described thus: In vitro competitive activity-based protein profiling (FP-Rh), mouse MAGL. Particulars: Table 2, mouse proteome, 30 min preincubation at 37° C. More on the design: from tissue; host or cells: mouse brain membrane fraction. The method, then:
as §1, §3

A value given as a limit tells only on which side of the number the result lay.

Consider `CC(=O)N1CCN(C(=O)ON2C(=O)CCC2=O)CC1` [Example 51, 2,5-Dioxopyrrolidin-1-yl 4-acetylpiperazine-1-carboxylate], for which the inhibition at 10 µM at FAAH [1], on ABHD6 [2] and on MAGL [3] was less than 25% in each case.
With `O=C(ON1C(=O)CCC1=O)N1CCN(Cc2ccc(N3CCOCC3)cc2C(F)(F)F)CC1` [Example 76, 2,5-Dioxopyrrolidin-1-yl 4-{[4-(morpholin-4-yl)-2-(trifluoromethyl)phenyl]methyl}piperazine-1-carboxylate], the inhibition at 1 µM is less than 25% at FAAH [1], 25 to 75% at ABHD6 [2] and 25 to 75% on MAGL [3].
In the case of `C[C@H]1CN(Cc2ccc(N3CCOCC3)cc2C(F)(F)F)CCN1C(=O)ON1C(=O)CCC1=O` [Example 77, 2,5-Dioxopyrrolidin-1-yl (2S)-2-methyl-4-{[4-(morpholin-4-yl)-2-(trifluoromethyl)phenyl]methyl}piperazine-1-carboxylate], the inhibition at 1 µM on FAAH [1] is less than 25%; on ABHD6 [2], 25 to 75%; on MAGL [3], 25 to 75%.
On to `C[C@@H]1CN(Cc2ccc(N3CCOCC3)cc2F)CCN1C(=O)ON1C(=O)CCC1=O` [Example 79, 2,5-Dioxopyrrolidin-1-yl (2R)-4-{[2-fluoro-4-(morpholin-4-yl)phenyl]methyl}-2-methylpiperazine-1-carboxylate], for which the inhibition at 1 µM on FAAH [1], on ABHD6 [2] and on MAGL [3] was less than 25% throughout.
With `C[C@@H]1CN(Cc2ccc(N3CCOCC3)cc2C(F)(F)F)CCN1C(=O)ON1C(=O)CCC1=O` [Example 80, 2,5-Dioxopyrrolidin-1-yl (2R)-2-methyl-4-{[4-(morpholin-4-yl)-2-(trifluoromethyl)phenyl]methyl}piperazine-1-carboxylate], the inhibition at 1 µM on FAAH [1], at ABHD6 [2] and on MAGL [3] was less than 25% in each case.
In the case of `O=C(ON1C(=O)CCC1=O)N1CCN(Cc2c(Cl)cccc2N2CCOCC2)CC1` [Example 81, 2,5-Dioxopyrrolidin-1-yl 4-{[2-chloro-6-(morpholin-4-yl)phenyl]methyl}piperazine-1-carboxylate], the inhibition at 1 µM was less than 25% on FAAH [1], 25 to 75% on ABHD6 [2] and less than 25% on MAGL [3].
In the case of `O=C1COc2ccc(CN3CCN(C(=O)ON4C(=O)CCC4=O)CC3)cc2N1` [Example 134, 2,5-Dioxopyrrolidin-1-yl 4-((3-oxo-3,4-dihydro-2H-benzo[b][1,4]oxazin-6-yl)methyl)piperazine-1-carboxylate], the IC50 at FAAH [4] is greater than 10000 nM; on ABHD6 [5], 1000 to 10000 nM; on MAGL [6], 1000 to 10000 nM.
As for `Cc1nn(-c2ccccc2)cc1CN1CCN(C(=O)ON2C(=O)CCC2=O)CC1` [Example 138, 2,5-Dioxopyrrolidin-1-yl 4-((3-methyl-1-phenyl-1H-pyrazol-4-yl)methyl)piperazine-1-carboxylate], the 50% inhibitory concentration (IC50) on FAAH [4] is 1000 to 10000 nM; at ABHD6 [5], 100 to 1000 nM; on MAGL [6] it was 1000 to 10000 nM.
As for `Cn1nc(-c2ccccc2)cc1CN1CCN(C(=O)ON2C(=O)CCC2=O)CC1` [Example 139, 2,5-dioxopyrrolidin-1-yl 4-((1-methyl-3-phenyl-1H-pyrazol-5-yl)methyl)piperazine-1-carboxylate], the half-maximal inhibitory concentration (IC50) is greater than 10000 nM on FAAH [4], 100 to 1000 nM at ABHD6 [5] and 100 to 1000 nM at MAGL [6].
Consider `Cc1nc(-c2ccccc2)oc1CN1CCN(C(=O)ON2C(=O)CCC2=O)CC1` [Example 143, 2,5-Dioxopyrrolidin-1-yl 4-((4-methyl-2-phenyloxazol-5-yl)methyl)piperazine-1-carboxylate], for which the IC50 is greater than 10000 nM at FAAH [4], 1000 to 10000 nM at ABHD6 [5] and 100 to 1000 nM at MAGL [6].
As for `Cc1nc2ccc(Cl)cn2c1CN1CCN(C(=O)ON2C(=O)CCC2=O)CC1` [Example 144], the IC50 at FAAH [4] is greater than 10000 nM; on ABHD6 [5] it was 100 to 1000 nM; at MAGL [6], 1000 to 10000 nM.
With `O=C(ON1C(=O)CCC1=O)N1CCN(Cc2cnc3ccc(Cl)cn23)CC1` [Example 145, 2,5-Dioxopyrrolidin-1-yl 4-((6-chloroimidazo[1,2-a]pyridin-3-yl)methyl)piperazine-1-carboxylate], the IC50 was greater than 10000 nM at FAAH [4], 1000 to 10000 nM on ABHD6 [5] and 1000 to 10000 nM at MAGL [6].
In the case of `Cc1nc(N2CCCCC2)sc1CN1CCN(C(=O)ON2C(=O)CCC2=O)CC1` [Example 148, 2,5-Dioxopyrrolidin-1-yl 4-((4-methyl-2-(piperidin-1-yl)thiazol-5-yl)methyl)piperazine-1-carboxylate], the figures for the IC50 at FAAH [4], on ABHD6 [5] and at MAGL [6] were greater than 10000 nM, 1000 to 10000 nM and 1000 to 10000 nM, respectively.
On to `Cn1cc(CN2CCN(C(=O)ON3C(=O)CCC3=O)CC2)c(-c2ccccc2)n1` [Example 149, 2,5-Dioxopyrrolidin-1-yl 4-((1-methyl-3-phenyl-1H-pyrazol-4-yl)methyl)piperazine-1-carboxylate], for which the values for the IC50 at FAAH [4], on ABHD6 [5] and on MAGL [6] were greater than 10000 nM, 1000 to 10000 nM and 1000 to 10000 nM, respectively.
In the case of `O=C(ON1C(=O)CCC1=O)N1CCN(C(c2cocn2)c2cocn2)CC1` [Example 152, 2,5-Dioxopyrrolidin-1-yl 4-(bis(oxazol-4-yl)methyl)piperazine-1-carboxylate], the IC50 at FAAH [4], at ABHD6 [5] and on MAGL [6] was 1000 to 10000 nM each time.
Regarding `Cc1cc(Cl)ccc1C(c1ccc(Cl)cc1C)N1CCN(C(=O)ON2C(=O)CCC2=O)CC1` [Example 153, 2,5-Dioxopyrrolidin-1-yl 4-(bis(4-chloro-2-methylphenyl)methyl)piperazine-1-carboxylate], the IC50 was greater than 10000 nM at FAAH [4], 1000 to 10000 nM at ABHD6 [5] and 100 to 1000 nM on MAGL [6].
For `Cc1cc(-c2ccccc2)ccc1CN1CCN(C(=O)ON2C(=O)CCC2=O)CC1` [Example 165, 2,5-Dioxopyrrolidin-1-yl 4-[(2-methyl-4-phenylphenyl)methyl]piperazine-1-carboxylate], the IC50 at FAAH [4] lay in the range of 1000 to 10000 nM; at ABHD6 [5], 100 to 1000 nM; at MAGL [6], 100 to 1000 nM.
For the compound `CC(C)c1cc(-c2ccccc2)ccc1CN1CCN(C(=O)ON2C(=O)CCC2=O)CC1` [Example 188, 2,5-Dioxopyrrolidin-1-yl 4-{[4-phenyl-2-(propan-2-yl)phenyl]methyl}piperazine-1-carboxylate], the figures for the IC50 at FAAH [4], on ABHD6 [5] and on MAGL [6] were greater than 10000 nM, 1000 to 10000 nM and 100 to 1000 nM, respectively.
For the compound `CN(C)C(=O)c1cc(-c2ccccc2)ccc1CN1CCN(C(=O)ON2C(=O)CCC2=O)CC1` [Example 189, 2,5-Dioxopyrrolidin-1-yl 4-{[2-(dimethylcarbamoyl)-4-phenylphenyl]methyl}piperazine-1-carboxylate], the 50% inhibitory concentration (IC50) on FAAH [4] was greater than 10000 nM; on ABHD6 [5], 1000 to 10000 nM; at MAGL [6], 100 to 1000 nM.
For `O=C(ON1C(=O)CCC1=O)N1CCN(Cc2ccc(-c3ccccc3)cc2C(=O)N2CCCC2)CC1` [Example 191, 2,5-Dioxopyrrolidin-1-yl 4-{[4-phenyl-2-(pyrrolidine-1-carbonyl)phenyl]methyl}piperazine-1-carboxylate], the IC50 is greater than 10000 nM at FAAH [4], 1000 to 10000 nM on ABHD6 [5] and 100 to 1000 nM on MAGL [6].

As usually defined, the inhibition is the share of the control response that was lost under treatment. A lower inhibition goes with little suppression. Usually IC50 stands for the concentration at which inhibition is half-maximal. Read a high IC50 as weaker potency in that assay.
